≈ marks a conversion by molar mass, not a printed value.

As usually defined, the solubility (kinetic) is the concentration staying in solution when a stock, usually in DMSO, is diluted into the medium.

For this series the following is noted: buffer; pH 7.4; 200.0 µM.
`CCNS(=O)(=O)c1ccc(NC(=O)Nc2cc(C)ccc2OC)cc1`: the solubility (kinetic) was determined as 0.9 µg/mL (≈ 2.48 µM).
`COc1ccc(NC(=O)N2CCc3ccccc3C2)cc1OC` yielded a kinetic solubility greater than 46.9 µg/mL.
`COC(=O)C(C)Oc1ccc(-c2nccc(-c3ccccn3)n2)cc1` (stereo unspecified) returned a solubility (kinetic) of 3.3 µg/mL (≈ 9.84 µM).
Under `Cc1ccc(/C=C2\SC(N3CCCCC3)=NC2=O)cc1` stands 5.7 µg/mL (≈ 19.9 µM).
As for `Nc1nc(NCc2ccco2)nc(Nc2cccc(F)c2)c1[N+](=O)[O-]`, the figure is 0.3 µg/mL (≈ 0.871 µM).
As for `COc1ccccc1CN(C)C(=O)c1ccc(S(=O)(=O)Nc2c(C)n(C)n(-c3ccccc3)c2=O)cc1`, the figure is greater than 78.1 µg/mL; as for `CCCc1ccc2oc(C(=O)N3CCC[C@H]3CO)c(C)c2c1`, 41.8 µg/mL (≈ 139 µM); as for `Nc1nc(C(c2ccccc2)c2ccccc2)cs1`, 11 µg/mL (≈ 41.3 µM).
`O=C(Nc1cccc2ncccc12)c1ccccc1[N+](=O)[O-]`: the solubility (kinetic) is 36.6 µg/mL (≈ 125 µM).
With `CCCN1C(=O)c2ccccc2NC1c1ccc(Cl)c(Cl)c1` (stereo unspecified), the kinetic solubility came to 11.9 µg/mL (≈ 35.5 µM).
Under `Cn1c(=O)n(C)c2cc(S(=O)(=O)Nc3ccccc3C(=O)O)ccc21` stands greater than 54.2 µg/mL; under `O=C(O)c1sccc1S(=O)(=O)N1CCOCC1`, greater than 41.6 µg/mL; under `CNC(=O)c1oc(-c2ccc(Cl)cc2)nc1C`, greater than 37.6 µg/mL.
On to `O=C(Nc1ccncc1)c1ccc(Cl)c([N+](=O)[O-])c1`, for which the kinetic solubility was greater than 41.7 µg/mL.
Regarding `O=C(CN1C(=O)c2ccccc2C1=O)NC1CCCCCC1`, the solubility (kinetic) was 12.4 µg/mL (≈ 41.3 µM).
As for `Cc1ccc(CNC(=S)N2CCOCC2)cc1`, the figure is greater than 37.6 µg/mL; as for `CC(=O)O/C(=C\c1cn(C(C)=O)c2ccccc12)C(=O)O`, greater than 43.1 µg/mL; as for `C=CCNc1nc(Cl)nc(Nc2ccccc2)n1`, 2.2 µg/mL (≈ 8.41 µM).
As for `Cc1ccc(S(=O)(=O)N2CC[C@@H]2C(=O)O)cc1`, the figure is greater than 38.3 µg/mL.
As for `CN(c1ccccc1)S(=O)(=O)c1cc(C(=O)N2CCN(c3ncccn3)CC2)ccc1Cl`, the figure is 33.5 µg/mL (≈ 71 µM).
Regarding `Cc1nc([N+](=O)[O-])cn1CC(=O)Nc1ccc([N+](=O)[O-])cc1`, the solubility (kinetic) was found to be 1.3 µg/mL (≈ 4.26 µM).
For the compound `CCOc1ccc(NC(=O)CN2C(=O)CSC(C)C2=O)cc1` (stereo unspecified), the kinetic solubility is greater than 48.4 µg/mL.
For the compound `Cc1ccc(CC(=O)NCC(O)c2ccccc2)cc1` (stereo unspecified), the kinetic solubility worked out at 33.4 µg/mL (≈ 124 µM).
Compound `COC(=O)Cn1cc(C=C2C(=O)NC(=O)NC2=O)c2ccccc21` had a kinetic solubility of 8.6 µg/mL (≈ 26.3 µM).
As for `COc1cccc(NC(=S)NCc2ccccc2)c1`, the figure is greater than 40.9 µg/mL.
As for `Cc1[nH]c(=O)c(C#N)c(C)c1CCC(=O)NCc1ccc(Cl)cc1`, the figure is greater than 51.6 µg/mL; as for `CCNC(=O)NC(=O)CSc1ccc(S(=O)(=O)N2CCOCC2)cn1`, 56.2 µg/mL (≈ 145 µM); as for `CCC(NC(=O)C1CCCC1)c1ccccc1` (stereo unspecified), greater than 34.7 µg/mL.
`[Br-].c1ccc(Cc2cc[n+](Cc3ccccn3)cc2)cc1`: the kinetic solubility is greater than 51.2 µg/mL.
Under `Cc1ccc(F)cc1NC(=O)N1CCCN(c2ccc(C(F)(F)F)cn2)CC1` stands 6.6 µg/mL (≈ 16.7 µM).
For `CC(C)C(NC(=O)c1cccs1)C(=O)NC1CCCCC1` (stereo unspecified), the solubility (kinetic) came to 4.7 µg/mL (≈ 15.2 µM).
In turn, `CSc1ncccc1C(=O)Nc1cccc(S(=O)(=O)N2CCCC2)c1` displayed a solubility (kinetic) greater than 56.6 µg/mL.
Under `CC1CC(=O)Nc2ccccc2N1C(=O)CSc1ccc2ccccc2n1` (stereo unspecified) stands greater than 56.6 µg/mL; under `Cc1ccc(NC(=O)CN2CCCC2c2cccn2C)cc1C` (stereo unspecified), 42.9 µg/mL (≈ 138 µM); under `Cc1cc(=O)oc2cc(OCC(=O)NC3CCCCC3)c(Cl)cc12`, 4.6 µg/mL (≈ 13.1 µM).
Under `O=C(CCc1cccc(Cl)c1)N1CCCC(Nc2ccccc2)C1` (stereo unspecified) stands 27.4 µg/mL (≈ 79.9 µM).
`CCCN(CCC)C(=O)c1cc2c(=O)n3cccc(C)c3nc2s1`: the solubility (kinetic) came out at 34.7 µg/mL (≈ 101 µM).
`CC(C)c1ccc(CN2C(=O)c3ccccc3S2(=O)=O)cc1` showed a solubility (kinetic) of 1.2 µg/mL (≈ 3.8 µM).
On to `O=C(Cc1ccc(F)cc1)Nc1ccccc1N1CCCC1`, for which the kinetic solubility was determined as 34.1 µg/mL (≈ 114 µM).
As for `Cc1ccnn1-c1ccc(C(=O)NCc2ccccc2CN2CCOCC2)cc1`, the figure is greater than 58.6 µg/mL; as for `CC(=O)c1ccc(N2CCN(c3ncccn3)CC2)cc1`, 7.7 µg/mL (≈ 27.3 µM).
Compound `C=C(C)c1cccc(C(C)(C)NC(=O)Nc2ccc(OC)nc2)c1` showed a kinetic solubility of 14 µg/mL (≈ 43 µM).
As for `Cc1c(C(=O)O)sc2nc(/C=C/c3cccc(O)c3)[nH]c(=O)c12`, the figure is 35.5 µg/mL (≈ 108 µM); as for `O=C(COC(=O)Cc1ccc(Br)cc1)NCc1cccs1`, 11.8 µg/mL (≈ 32 µM); as for `Cc1[nH]c2ccccc2c1C(=O)C(=O)N1CC2CC(C1)c1cccc(=O)n1C2` (stereo unspecified), greater than 56.3 µg/mL.
In turn, `NC(=O)Nc1ccc(C(=O)OCC(=O)c2c[nH]c3ccccc23)cc1` yielded a kinetic solubility of 4.2 µg/mL (≈ 12.5 µM).
`NC(=O)C1CCN(c2ccc([N+](=O)[O-])cc2Cl)CC1` gave a kinetic solubility of 3.3 µg/mL (≈ 11.6 µM).
Under `Cc1cc(S(=O)(=O)Nc2c(C)nn(C)c2C)c(Cl)cc1Cl` stands greater than 52.2 µg/mL; under `CC(C)Sc1nc2c([nH]1)c(=N)ncn2Cc1ccccc1`, greater than 44.9 µg/mL.
Under `Cc1ccc(C2(C)NC(=O)N(CC(=O)N(c3ccccc3)C3CCS(=O)(=O)C3)C2=O)cc1` (stereo unspecified) stands greater than 68.3 µg/mL; under `O=C(NCCCCNC(=O)c1ccc(F)cc1)c1ccc(F)cc1`, 3.9 µg/mL (≈ 11.7 µM).

These data come from PubChem BioAssay AID1996.
